The values below come from patent publication US12233045B2, “Therapeutic agent for treating bradyarrhythmia” (OSAKA UNIVERSITY, priority 2018, dated 2025).

Residue numbers refer to the chain shown, from its start.

The target of experiment [1] is T1, KCNJ5 WT/W101C KACh channel (Homo sapiens, UniProt P48544+P48549, W101C).
T1 construct: expressed in transfected cells; host or cells: Xenopus laevis oocytes (cRNA injection)
T1 sequence (P48544 1-419 W101C): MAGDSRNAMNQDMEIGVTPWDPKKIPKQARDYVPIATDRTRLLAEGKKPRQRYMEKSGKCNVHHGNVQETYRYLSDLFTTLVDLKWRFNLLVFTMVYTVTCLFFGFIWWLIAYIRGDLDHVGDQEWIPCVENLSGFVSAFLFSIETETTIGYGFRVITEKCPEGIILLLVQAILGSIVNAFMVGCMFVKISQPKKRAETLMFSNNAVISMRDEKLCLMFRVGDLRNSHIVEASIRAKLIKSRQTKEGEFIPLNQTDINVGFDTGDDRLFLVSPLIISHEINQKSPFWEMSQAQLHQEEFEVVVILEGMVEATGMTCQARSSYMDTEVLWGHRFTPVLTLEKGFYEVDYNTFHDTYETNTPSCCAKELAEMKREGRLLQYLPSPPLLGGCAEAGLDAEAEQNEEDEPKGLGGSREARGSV
T1 sequence (P48544 1-419): T1 sequence (P48544 1-419 W101C) with C101W
T1 sequence (P48549 1-501): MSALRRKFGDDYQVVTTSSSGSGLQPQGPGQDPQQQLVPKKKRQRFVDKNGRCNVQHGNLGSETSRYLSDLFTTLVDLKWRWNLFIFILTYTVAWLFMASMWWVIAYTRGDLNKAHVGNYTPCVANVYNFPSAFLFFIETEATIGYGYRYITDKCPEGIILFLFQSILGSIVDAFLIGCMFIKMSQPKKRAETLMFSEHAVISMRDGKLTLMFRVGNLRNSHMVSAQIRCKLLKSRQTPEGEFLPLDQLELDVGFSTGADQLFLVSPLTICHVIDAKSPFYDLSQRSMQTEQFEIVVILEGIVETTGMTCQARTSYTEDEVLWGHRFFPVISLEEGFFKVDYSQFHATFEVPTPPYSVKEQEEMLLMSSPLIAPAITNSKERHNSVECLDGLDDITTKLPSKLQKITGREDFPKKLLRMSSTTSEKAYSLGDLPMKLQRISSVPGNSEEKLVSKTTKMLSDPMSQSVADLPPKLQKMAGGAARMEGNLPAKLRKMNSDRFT
The experiment in a line: two-electrode voltage clamp, W101C heterozygous mutant KACh channel in Xenopus laevis oocytes. It is filed as cell-based. The conditions noted are these: 0.01, 0.1 and 1 μM. Here is the method:
In Xenopus laevis oocytes, in order to imitate autosomal dominant inheritance heterozygous, equimolar amounts of cRNAs of wild type KCNJ5 (KCNJ5 WT) and KCNJ5 W101C were injected together with cRNA of wild type KCNJ3 (KCNJ3 WT), the W101C heterozygous mutant KACh channel was expressed, electrodes were inserted, and the channel activity was confirmed by a two-electrode voltage clamp method.
The above human KCNJ5 cDNA clone (commercially available from Invitrogen) was amplified by PCR and subcloned it into a pCS2+ vector (commercially available from Addgene) to prepare a template, and the c.303G>C mutation providing KCNJ5 W101C was introduced by site-directed mutagenesis through PCR. […]
The whole cell current via the expressed KACh channel was measured by a two-electrode voltage clamp method using a GeneClamp 500 amplifier (commercially available from Molecular Devices). […] The perfusate containing the compound (I) with a low concentration was added when the current amplitude was almost steady, and the current amplitude was then recorded while replacing it with a perfusate with a high concentration in the same manner. When the recording was ended, Ba^2+ (3 mM) was added, and the intrinsic leak current was measured.

The next experiment deals with T2, KCNJ3 N83H KACh channel (Homo sapiens, UniProt P48544+P48549, N83H).
T2 construct: expressed in transfected cells; host or cells: Xenopus laevis oocytes (cRNA injection)
T2 sequence (P48549 1-501 N83H): T1 sequence (P48549 1-501) with N83H
T2 sequence (P48544 1-419): T1 sequence (P48544 1-419 W101C) with C101W
Put plainly: two-electrode voltage clamp, KACh channel expressed in Xenopus laevis oocytes (N83H mutant). The conditions noted are these: for inhibition of the N83H mutant compared with the WT KACh channel: N83H vs WT; for inhibitory effect on the KCNJ3 N83H KACh channel: two-electrode voltage clamp. It counts as cell-based. From the text: (§1) By co-expressing with […] subunits of G protein, a whole cell current was able to be directly measured via the activated KACh channel.
The coding sequence of human KCNJ3 WT was obtained by amplifying a human KCNJ3 cDNA clone (commercially available from Invitrogen) by PCR, and subcloning it into a pCS2+ vector (commercially available from Addgene). The c.247A>C mutation providingKCNJ3 N83H was introduced by site-directed mutagenesis through PCR. Similarly, the human KCNJ5 coding sequence was obtained by amplifying a human KCNJ5 cDNA clone (commercially available from Invitrogen) by PCR and subcloning it into a pCS2+ vector. The cRNAs of KCNJ3 WT, KCNJ3 N83H and KCNJ5 were synthesized from linearized cDNA using an mMESSAGE mMACHINE kit (commercially available from Life Technologies) vitro transcription. cRNA of KCNJ3 N83H or KCNJ3 WT and cRNA of wild type KCNJ5 were injected into Xenopus laevis oocytes together with cRNA of β and γ subunits of G protein, and incubated in an ND96 solution at 18° C. for 48 to 96 hours.
For the extracellular fluid, the pH of a test bath solution containing 40 mM potassium chloride, 50 mM sodium chloride, 3 mM magnesium chloride M, 0.15 mM niflumic acid, and 5 mMHEPES was adjusted to 7.4 with potassium hydroxide.
(§2) The whole cell current via the expressed KACh channel was measured by a two-electrode voltage clamp method using a GeneClamp 500 amplifier (commercially available from Molecular Devices). The compound (II) dissolved in DMSO, and a perfusate was prepared so that the final concentration was 0.001, 0.01, 0.03, 0.1, 1, and 10 μM. The perfusate containing the compound (II) with a low concentration was added when the amount of current was almost steady, and the amount of current was then recorded while replacing it with a perfusate with a high concentration in the same manner. When the recording was ended, Ba^2+ (3 mM) was added, and the intrinsic leak current was measured. The measured data was analyzed using Clampfit 10.2 (commercially available from Molecular Devices). The IC50 value was calculated using GraphPad Prism version 5.00 (commercially available from GraphPad Software).

The target in experiment [2] is T3, KCNJ3 WT KACh channel (Homo sapiens, UniProt P48544+P48549).
T3 construct: expressed in transfected cells; host or cells: Xenopus laevis oocytes (cRNA injection)
T3 sequence (P48549 1-501): T1 sequence (P48549 1-501)
T3 sequence (P48544 1-419): T1 sequence (P48544 1-419 W101C) with C101W
The experiment in a line: two-electrode voltage clamp, KACh channel expressed in Xenopus laevis oocytes (wild type). It counts as cell-based.
From the text: as §1
The coding sequence of human KCNJ3 WT was obtained by amplifying a human KCNJ3 cDNA clone (commercially available from Invitrogen) by PCR, and subcloning it into a pCS2+ vector (commercially available from Addgene). The c.247A>C mutation providingKCNJ3 N83H was introduced by site-directed mutagenesis through PCR. Similarly, the human KCNJ5 coding sequence was obtained by amplifying a human KCNJ5 cDNA clone (commercially available from Invitrogen) by PCR and subcloning it into a pCS2+ vector. […]
as §2, with “The compound (II) dissolved in DMSO, and a perfusate was prepared so that the final concentration was 0.001, 0.01, 0.03, 0.1, 1, and 10 μM.” left out

In experiment [3] the test system is KCNJ3 N83H mutant zebrafish. The experiment in a line: transgenic zebrafish model, heart rate and pulsation rhythm analysis (KCNJ3 N83H). It counts as in vivo, zebrafish (Danio rerio). The note with it: for effect on heart rate and bradyarrhythmia: 100 nM in 0.03% sea salt aqueous solution, after 1 hour, 2 day old fry; for effect on sinus arrest / atrioventricular block caused by the N83H mutation: 100 nM, 1 hour after application. The procedure:
(§3) As a comparative example, zebrafish for KCNJ3 WT expression was also prepared in the same manner.
Transgenic zebrafish was prepared by a transposon transfer system using transposon Tol2. Since the cardiac KACh channel was expressed in the sinoatrial node, atrioventricular node, and atrial muscle, a gene construct in which three genes of mCherry were linked with a 2A peptide was prepared so that human KCNJ3 WT or N83H and human KCNJ5, and additionally gene introduction thereof were able to be determined under a fluorescence microscope under the control of the atrial myosin heavy chain (amhc) promoter, which expressed a target gene in zebrafish in an atrial-specific manner (FIG. 3). Next, a small amount of mRNA of the transposase encoded by Tol2 gene and this construct were simultaneously injected into the fertilized egg. When the adult fish prepared in this manner were crossed with wild type zebrafish, fish whose germline transmission was confirmed by generating fry positive for mCherry in the atrium under a fluorescence microscope were used as an F0 founder. When this F0 founder was crossed with wild type zebrafish hspGFF3A, which expressed GFP in both the ventricle and the atrium (Proceedings of the National Academy of Sciences of the United States of America. 2008; 105:1255-1260.), the heart rate and the heart pulsation rhythm were analyzed using 2 day old F1 transgenic zebrafish fry which expressed GFP in the ventricle and GFP and mCherry in the atrium (FIG. 4). Specifically, zebrafish fry was fixed on a glass bottom dish with a diameter of 35 mm with a 0.5% low-melting-point agarose gel, and the fry heart in a 0.03% sea salt aqueous solution was observed under a fluorescence microscope. Based on the video of the heart beat acquired by the camera attached to the fluorescence microscope, detailed analysis of the heart rate and pulsation rhythm was performed using original M mode analysis software (The Journal of clinical investigation. 2007, 117:2812-2824.). The heart rate was measured by the pulsation of the sinus venosus part including the sinus node. Since the expression level of mCherry in the atrium was not different between KCNJ3 WT zebrafish and KCNJ3 N83H mutant zebrafish, the expression level of the KACh channel gene was considered to be the same in both cases. In the KCNJ3 N83H mutant zebrafish, significant atrial enlargement and a bradyarrhythmia phenotype similar to human cases (sinus arrest, sinus bradycardia, sinoatrial block, atrioventricular block) were observed (FIG. 5). Next, the 0.03% sea salt aqueous solution was replaced with a 0.03% sea salt aqueous solution containing the 100 nM compound (II), and the heart beat after 1 hour was analyzed in the same manner.

The subject of a further experiment is KCNJ3 WT zebrafish. Put plainly: transgenic zebrafish model, heart rate analysis (KCNJ3 WT). It is filed as in vivo, zebrafish (Danio rerio). The note with it: 100 nM, after 1 hour. Here is the method: as §3
Transgenic zebrafish was prepared by a transposon transfer system using transposon Tol2. Since the cardiac KACh channel was expressed in the sinoatrial node, atrioventricular node, and atrial muscle, a gene construct in which three genes of mCherry were linked with a 2A peptide was prepared so that human KCNJ3 WT or N83H and human KCNJ5, and additionally gene introduction thereof were able to be determined under a fluorescence microscope under the control of the atrial myosin heavy chain (amhc) promoter, which expressed a target gene in zebrafish in an atrial-specific manner (FIG. 3). […] When the adult fish prepared in this manner were crossed with wild type zebrafish, fish whose germline transmission was confirmed by generating fry positive for mCherry in the atrium under a fluorescence microscope were used as an F0 founder. When this F0 founder was crossed with wild type zebrafish hspGFF3A, which expressed GFP in both the ventricle and the atrium (Proceedings of the National Academy of Sciences of the United States of America. 2008; 105:1255-1260.), the heart rate and the heart pulsation rhythm were analyzed using 2 day old F1 transgenic zebrafish fry which expressed GFP in the ventricle and GFP and mCherry in the atrium (FIG. 4). […]

In experiment [4] the target is T3, KCNJ3 WT KACh channel. The conditions noted are these: literature (Jin W, Lu Z. Biochemistry 1999); cited from earlier work.

In the case of `Cc1cc(CO)nc2cc3c(cc12)OC(C)(C)[C@H](O)[C@H]3NCCc1ccccc1` [compound (I), (3R4S)-7-hydroxymethyl-2,2,9-trimethyl-4-(phenethylamino)-3,4-dihydro-2H-pyra no[2,3-g]quinoline-3-ol], in experiment [1], the “inhibitory effect on the KCNJ5 WT/W101C KACh channel” value is given as “concentration-dependent inhibitory effect”. On KCNJ3 N83H KACh channel, the “inhibition of the N83H mutant compared with the WT KACh channel” value is on record as “stronger on N83H than WT” and the “inhibitory effect on the KCNJ3 N83H KACh channel” value is “exhibited the inhibitory effect”. Moreover, the “inhibitory effect on the KCNJ3 WT KACh channel” value against KCNJ3 WT KACh channel [2] (two-electrode voltage clamp) is recorded as “exhibited the inhibitory effect”. In experiment [3], the “effect on heart rate and bradyarrhythmia” value was “increasing the heart rate and improving bradyarrhythmia”; the “effect on sinus arrest / atrioventricular block caused by the N83H mutation” value was “improved the sinus arrest and atrioventricular block”.
As for `CC1(C)Oc2cc([N+](=O)[O-])c(N)cc2[C@H](NCCc2ccccc2)[C@H]1O` [compound (II), (3R,4S)-6-amino-3,4-di hydro-2,2-dimethyl-7-nitro-4-(2-phenethylamino)-2H-1-benzopyran-3-ol], the “effect on heart rate” value in the experiment on KCNJ3 WT zebrafish was “appropriate increase in the heart rate without causing excess tachycardia”. Further, the IC50 on KCNJ3 N83H KACh channel (N83H mutant, n=14, p<0.01 vs wild type, read-out: IC50 value, inhibition of whole cell current) worked out at 50 ± 12 nM. Besides, on KCNJ3 N83H KACh channel, the “inhibition of the N83H mutant compared with the WT KACh channel” value is given as “higher affinity for the mutant KACh channel” and the “inhibitory effect on the KCNJ3 N83H KACh channel” value is recorded as “concentration-dependent inhibitory effect”. For the same compound, the half-maximal inhibitory concentration (IC50) on KCNJ3 WT KACh channel [2] (wild type, n=13, read-out: IC50 value, inhibition of whole cell current) is 230 ± 60 nM. Also, in experiment [3], the “effect on heart rate and bradyarrhythmia” value is “increasing the heart rate and improving bradyarrhythmia”.
Turning to Tertiapin-Q [reference compound], the “inhibitory action on the KCNJ3 WT KACh channel” value on KCNJ3 WT KACh channel [4] is “inhibitory action”. Besides, the “effect on sinus arrest / atrioventricular block caused by the N83H mutation” value in experiment [3] was “did not improve sinus arrest”.
